Assays:
N2a cells = experiment: N2a differentiation by hBLEC-crossed OligoGM1 (morphology); format: cell-based, mouse; conditions: basolateral solution (~25 μM), 24 h
Method: For differentiation experiments, N2a cells were seeded at 5 × 10^3/cm^2 and incubated for 24 h in regular culture condition to allow cell attachment. Before all treatments, growth medium was removed and cells were adapted for 30 min in pre-warmed (37 °C) Transfectagro medium containing 2% heat-inactivated FBS, 1% L-glutamine, and 1% penicillin/streptomycin solution. All treatments were conducted at 37 °C in a humidified atmosphere of 95% air/5% CO2.
Precisely, [^3H]OligoGM1 (1 × 10^6 dpm) diluted into cold OligoGM1 solution (300 µM) was administered for 240 min to hBLECs in the upper compartment so that at a volume of 0.5 mL there was 150 nmol of OligoGM1. […] After the 240 min incubation period, the basolateral solution was screened to find the quantity of crossed OligoGM1 by measuring ^3H-radioactivity and was then administered to N2a cells for 24 h. […] Morphological signals of neurodifferentiation were evaluated by cell observation and TrkA-ERK1/2 pathway activation was verified by immunoblotting (for procedural details see Supplementary Materials and [22, 23]). […]
Since mycoplasma could infect of Caco-2 cells, we validated the absence of any contamination by two methods (data not shown). […] Briefly culture supernatants were mixed with MycoAlert reagents according to manufacturer instruction and the luminescence was measured after 10 min using fluorimeter (BioTek, H1, Vermont, Winooski). […]

hBLECs = experiment: Toxicity on hBLECs / monolayer integrity by LY permeability in combination with test substance; format: cell-based, human; conditions: 10, 50, 100 and 300 μM with 50 μM LY, 60 min and over time (20, 40, 60 min)
Method: Prior to the experiments, in order to verify the hBLECs’ monolayer integrity and stability, the permeability parameters were verified as previously reported. Briefly, 1.5 mL Ringer–Hepes solution (RH) (150 mM NaCl, 5.2 mM KCl, 2.2 mM CaCl2, 0.2 mM MgCl26H2O, 6 mM NaHCO3, 5 mM HEPES, pH: 7.4) was added to empty wells of a 12-well plate. Filter insert containing confluent monolayers of hBLECs or not (control) were subsequently placed in the 12-well plate, filled with 0.5 mL RH buffer containing the fluorescent integrity marker LY (50 μM), and then placed on an orbital shaker (150 rpm, Heidolph Titramax 100) at 37 °C in a humidify atmosphere of 95% air/5% CO2. Every 20 min for 1 h, filter inserts were withdrawn from the receiver compartment and placed in the next one. To verify the quantity of LY, at the end of the experiments, aliquots from the donor solution were taken at the end of the experiments and the fluorescence was quantified using a quantification curve of LY as referee. At least three inserts with cells and three without cells were tested in each permeability measurement. The fluorescence was measured using a luminescence spectrometer (LS 50B, Perkin Elmer), using the following excitation/emission wavelength (nm) settings: 432/538. Pe parameters were calculated according to the formulas shown in the Supplementary Information (Equations (7)–(10)). In parallel, as positive control for breakdown of hBLECs, D-mannitol, was used at a concentration of 1.4 M. At this concentration, mannitol induces an osmotic shock, and thus an increase in paracellular permeability.
To evaluate the toxicity of GM1 and OligoGM1, the LY endothelial permeability (Pe) and apparent permeability (Papp) were considered for evaluation of hBLEC monolayer integrity after administration of compounds.
To examine the LY permeability, 1.5 mL of RH buffer was added to empty wells of a 12-well plate, then hBLEC filters were placed in the 12-well plate and filled with 0.5 mL RH buffer containing 50 μΜ LY plus OligoGM1 or GM1 at an appropriate test concentration (from 5 to 300 μΜ). The hBLEC inserts were moved every 20 min to a new RH-filled well up to 60 min. At the end of the incubation period, solutions were collected from apical and basolateral compartments, LY was quantified, and Papp was calculated as reported in the Supplementary Information (Equation (1)) and previously mentioned.

SMILES: CC(=O)NC1C(O)CC(OC2C(O)C(OC3C(CO)OC(O)C(O)C3O)OC(CO)C2OC2OC(CO)C(O)C(OC3OC(CO)C(O)C(O)C3O)C2NC(C)=O)(C(=O)O)OC1C(O)C(O)CO (stereo not drawn) [OligoGM1, β-Gal-(1-3)-β-GalNAc-(1-4)-[α-Neu5Ac-(2-3)]-β-Gal-(1-4)-β-Glc]
- N2a cell morphology / neurite sprouting (N2a cells): induced a neuron-like morphology
- effect on LY Pe and Papp (toxicity to hBLECs) (hBLECs): no variations of LY Pe and Papp were observed

Source: article PMC7215935, “GM1 Oligosaccharide Crosses the Human Blood–Brain Barrier In Vitro by a Paracellular Route” (International Journal of Molecular Sciences, 2020)
